In ChEMBL document CHEMBL3045837, “Tobacco mosaic virus (TMV) inhibitors from Picrasma quassioides Benn” (J Agric Food Chem, 2009):
Active and inactive are the calls of the source. No cut-off for these calls is given here.

Legend:
[1] = system: Tobacco mosaic virus; assay: Antiviral activity against Tobacco mosaic virus U1 (TMV) infected Nicotiana glutinosa leaves assessed as inhibition of viral infection at 50 ug/mL using compound pre-treated virus suspension measured 5 to 6 days after compound exposure; format: functional; settings: U1, in Nicotiana glutinosa
[2] = system: Tobacco mosaic virus; assay: Antiviral activity against Tobacco mosaic virus U1 (TMV) infected Nicotiana glutinosa leaves assessed as inhibition of viral infection at 50 ug/mL using compound pre-treated virus suspension in presence of 25 ug/mL quassinoid nigakilactone B measured 5 to 6 days after compound exposure; format: functional
[3] = system: Tobacco mosaic virus; assay: Antiviral activity against Tobacco mosaic virus U1 (TMV) infected Nicotiana glutinosa leaves assessed as inhibition of viral replication at 50 ug/mL in presence of 25 ug/mL quassinoid nigakilactone B measured 48 hr after compound exposure by half leaf method; format: functional
[4] = system: Tobacco mosaic virus; assay: Antiviral activity against Tobacco mosaic virus U1 (TMV) infected Nicotiana tabacum cv. K326 leaves assessed as inhibition of viral replication at 50 ug/mL in presence of 25 ug/mL quassinoid nigakilactone B measured 48 hr after compound exposure by leaf-disk method; format: functional
[5] = system: Tobacco mosaic virus; assay: Antiviral activity against Tobacco mosaic virus U1 (TMV) infected Nicotiana tabacum cv. K326 leaves assessed as inhibition of viral replication at 50 ug/mL measured 48 hr after compound exposure by leaf-disk method; format: functional; settings: U1, 48 h
[6] = system: Tobacco mosaic virus; assay: Antiviral activity against Tobacco mosaic virus U1 (TMV) infected Nicotiana glutinosa leaves assessed as inhibition of viral replication at 50 ug/mL measured 48 hr after compound exposure by half leaf method; format: functional; settings: U1, in Nicotiana glutinosa
[7] = system: Tobacco mosaic virus; assay: Antiviral activity against Tobacco mosaic virus U1 (TMV) infected Nicotiana tabacum cv. K326 leaves assessed as inhibition of viral replication in presence of 25 ug/mL quassinoid nigakilactone B measured 48 hr after compound exposure by leaf-disk method; format: functional, organism-based; settings: U1, 48 h
[8] = system: Tobacco mosaic virus; assay: Antiviral activity against Tobacco mosaic virus U1 (TMV) infected Nicotiana tabacum cv. K326 leaves assessed as inhibition of viral replication measured 48 hr after compound exposure by leaf-disk method; format: functional, organism-based; settings: U1, 48 h
[9] = system: Tobacco mosaic virus; assay: Inhibition of Tobacco mosaic virus U1 (TMV) coat protein accumulation using virus infected Nicotiana tabacum cv. K326 leaves at 50 ug/mL by SDS-PAGE and Western blotting method; format: functional, organism-based
[10] = system: Tobacco mosaic virus; assay: Inhibition of Tobacco mosaic virus U1 (TMV) coat protein accumulation using virus infected Nicotiana tabacum cv. K326 leaves by SDS-PAGE and Western blotting method; format: functional, organism-based

## O=C1NC(=O)c2[nH]c3ccccc3c2C1=O
[1]
  inhibition at 50 µg/mL: 44.4%
[2]
  inhibition (INH): 52.1%
[3]
  inhibition (INH): 33.3%
[4]
  inhibition (INH): 35.8%
[5]
  inhibition at 50 µg/mL: 29.5%
[6]
  inhibition at 50 µg/mL: 29.4%

## COc1c(OC)c2nccc3c4ccccc4n(c1=O)c23 [4,5-DIMETHOXYCANTHIN-6-ONE]
[1]
  inhibition at 50 µg/mL: 58.3%
[2]
  inhibition (INH): 61.1%
[3]
  inhibition (INH): 43.8%
[4]
  inhibition (INH): 59%
[5]
  inhibition at 50 µg/mL: 42.6%
[7]
  EC50: 130 µM
[6]
  inhibition at 50 µg/mL: 33.3%
[8]
  EC50: 189 µM

## C=Cc1ncc(OC)c2c1[nH]c1c(OC)cccc12
[1]
  inhibition at 50 µg/mL: 53.3%
[2]
  inhibition (INH): 58.3%
[3]
  inhibition (INH): 47.1%
[4]
  inhibition (INH): 63%
[5]
  inhibition at 50 µg/mL: 39.7%
[6]
  inhibition at 50 µg/mL: 38.5%

## CNCC(=O)N[C@@H](CO)C(=O)N[C@H]1[C@H](O)[C@@H](O)[C@H](n2ccc(N)nc2=O)O[C@@H]1C(N)=O [NINGNANMYCIN]
[1]
  inhibition at 50 µg/mL: 60%
[2]
  inhibition (INH): 55.6%
[3]
  inhibition (INH): 53.8%
[4]
  inhibition (INH): 52.6%
[5]
  inhibition at 50 µg/mL: 51%
[7]
  EC50: 129 µM
[6]
  inhibition at 50 µg/mL: 54.5%
[8]
  EC50: 135 µM

## COC1=C[C@@H](C)[C@@H]2C[C@H]3OC(=O)C[C@H]4[C@@H](C)[C@H](OC)[C@@H](O)[C@H]([C@@]2(C)C1=O)[C@@]34C [NIGAKILACTONE B]
[1]
  inhibition at 50 µg/mL: 10%
[9]
  inhibition: inactive
[5]
  inhibition at 50 µg/mL: 3.2%
[6]
  inhibition at 50 µg/mL: 6.7%

## CCc1nccc2c1[nH]c1c(OC)cccc12
[1]
  inhibition at 50 µg/mL: 45.5%
[2]
  inhibition (INH): 50%
[3]
  inhibition (INH): 36.4%
[4]
  inhibition (INH): 48.4%
[5]
  inhibition at 50 µg/mL: 20.9%
[6]
  inhibition at 50 µg/mL: 25%

## COc1cccc2c1[nH]c1c(CCC(=O)c3nccc4c3[nH]c3ccccc34)ncc(OC)c12
[1]
  inhibition at 50 µg/mL: 45.5%
[2]
  inhibition (INH): 68.3%
[3]
  inhibition (INH): 52.4%
[4]
  inhibition (INH): 64.8%
[5]
  inhibition at 50 µg/mL: 28.9%
[7]
  EC50: 78 µM
[6]
  inhibition at 50 µg/mL: 39.4%
[8]
  EC50: 131 µM

## COC(=O)c1nccc2c1[nH]c1ccccc12
[10]
  inhibition: Dose-dependent effect
[1]
  inhibition at 50 µg/mL: 71.4%
[2]
  inhibition (INH): 73.3%
[3]
  inhibition (INH): 68.4%
[4]
  inhibition (INH): 71.9%
[5]
  inhibition at 50 µg/mL: 60.4%
[7]
  EC50: 115 µM
[6]
  inhibition at 50 µg/mL: 47.4%
[8]
  EC50: 179 µM

## COc1c(O)c2nccc3c4ccccc4n(c1=O)c23 [PICRASIDINE Q]
[1]
  inhibition at 50 µg/mL: 42.9%
[2]
  inhibition (INH): 66.7%
[3]
  inhibition (INH): 53.8%
[4]
  inhibition (INH): 52.6%
[5]
  inhibition at 50 µg/mL: 25.6%
[6]
  inhibition at 50 µg/mL: 35.7%

## COC(=O)c1ncc(O)c2c1[nH]c1ccccc12
[1]
  inhibition at 50 µg/mL: 60%
[2]
  inhibition (INH): 69.2%
[3]
  inhibition (INH): 55.6%
[4]
  inhibition (INH): 62.3%
[5]
  inhibition at 50 µg/mL: 45.7%
[6]
  inhibition at 50 µg/mL: 41.7%

## COc1cc2nccc3c4ccccc4n(c1=O)c23 [5-METHOXYCANTHINONE]
[1]
  inhibition at 50 µg/mL: 36.4%
[2]
  inhibition (INH): 58.3%
[3]
  inhibition (INH): 50%
[4]
  inhibition (INH): 45.7%
[5]
  inhibition at 50 µg/mL: 27.5%
[6]
  inhibition at 50 µg/mL: 40%

## COc1cccc2c3c([nH]c12)C(=O)NC(=O)C3=O
[1]
  inhibition at 50 µg/mL: 50%
[2]
  inhibition (INH): 55.9%
[3]
  inhibition (INH): 47.3%
[4]
  inhibition (INH): 59.8%
[5]
  inhibition at 50 µg/mL: 35.1%
[7]
  EC50: 183 µM
[6]
  inhibition at 50 µg/mL: 39.5%
[8]
  EC50: 257 µM
